Results published in ChEMBL document CHEMBL4414606, “Bioactive Streptoglutarimides A-J from the Marine-Derived Streptomyces sp. ZZ741” (J Nat Prod, 2019).
In brackets after ≈: the same amount, converted by molar mass.

How the values were obtained:
[1] = test system: Candida albicans; assay: Antifungal activity against Candida albicans assessed as reduction in fungal growth incubated for 12 hrs by microdilution method; type: functional
[2] = test system: U-251; assay: Antiproliferative activity against human U251 cells assessed as reduction in cell viability after 72 hrs by SRB assay; type: functional, cell-based
[3] = test system: Escherichia coli; assay: Antibacterial activity against Escherichia coli assessed as reduction in bacterial growth incubated for 12 hrs by microdilution method; type: functional
[4] = test system: Staphylococcus aureus; assay: Antibacterial activity against methicillin resistant Staphylococcus aureus assessed as reduction in bacterial growth incubated for 12 hrs by microdilution method; type: functional
[5] = test system: U-87 MG; assay: Antiproliferative activity against human U87MG cells assessed as reduction in cell viability after 72 hrs by SRB assay; type: functional, cell-based, U-87MG ATCC
[6] = Homo sapiens, U-251, 72 h, read-out: IC50
[7] = Homo sapiens, U-87 MG, 72 h, read-out: IC50

Row | Compound | MIC [1] [µg/mL] | IC50 ([2]; u-251) | MIC [3] [µg/mL] | MIC [4] [µg/mL] | IC50 ([5]; u-87mg atcc) | IC50 [2, 6] [nM] | IC50 [5, 7] [nM]
1 | C[C@](O)(CO)C[C@@]1(C)OC(CC2CC(=O)NC(=O)C2)=CC1=O | 18 (≈ 57.8 µM) | Not Active | 12 (≈ 38.5 µM) | 10 (≈ 32.1 µM) | Not Active |  | 
2 | C[C@@H]1C[C@@H]([C@H](O)CC2CC(=O)NC(=O)C2)C(=O)[C@@H](C)[C@@H]1O | 15 (≈ 50.4 µM) |  | 10 (≈ 33.6 µM) | 9 (≈ 30.3 µM) |  | 1500 | 3800
3 | C[C@@H]1[C@H](O)[C@@H](C)/C=C/C=C/C=C/C=C/C=C/C=C/C=C/[C@H](O[C@@H]2O[C@H](C)[C@@H](O)[C@H](N)[C@@H]2O)C[C@@H]2O[C@](O)(C[C@@H](O)C[C@@H](O)[C@H](O)CC[C@@H](O)C[C@@H](O)CC(=O)O[C@H]1C)C[C@H](O)[C@H]2C(=O)O [AMPHOTERICIN B] | 0.75 (≈ 0.812 µM) |  |  |  |  |  | 
4 | C[C@H]1C[C@@](C)(O)C[C@@H]([C@H](O)CC2CC(=O)NC(=O)C2)C1=O | 18 (≈ 60.5 µM) |  | 10 (≈ 33.6 µM) | 10 (≈ 33.6 µM) |  | 50 | 220
5 | C[C@@H]1C[C@](C)(CO)O/C1=C\C(=O)CC1CC(=O)NC(=O)C1 | 16 (≈ 54.2 µM) | Not Active | 9 (≈ 30.5 µM) | 9 (≈ 30.5 µM) | Not Active |  | 
6 | C[C@H](CO)C[C@@]1(C)OC(CC2(O)CC(=O)NC(=O)C2)=CC1=O | 20 (≈ 64.2 µM) | Not Active | 10 (≈ 32.1 µM) | 9 (≈ 28.9 µM) | Not Active |  | 
7 | C[C@H](CO)C[C@@]1(C)OC(CC2CC(=O)NC(=O)C2)=CC1=O | 8 (≈ 27.1 µM) | Not Active | 8 (≈ 27.1 µM) | 10 (≈ 33.9 µM) | Not Active |  | 
8 | CC1=C[C@@](C)(CO)O/C1=C\C(=O)CC1CC(=O)NC(=O)C1 | 15 (≈ 51.1 µM) | Not Active | 8 (≈ 27.3 µM) | 10 (≈ 34.1 µM) | Not Active |  | 
9 | C[C@H]1C[C@H]([C@H](O)CC2CC(=O)NC(=O)C2)C(=O)[C@@](C)(O)C1 | 12 (≈ 40.4 µM) | Not Active | 9 (≈ 30.3 µM) | 11 (≈ 37 µM) | Not Active |  | 
10 | C[C@@H]1C/C(=C/CC2CC(=O)NC(=O)C2)C(=O)[C@@H](C)[C@@H]1O | 18 (≈ 64.4 µM) | Not Active | 10 (≈ 35.8 µM) | 10 (≈ 35.8 µM) | Not Active |  | 
11 | CN[C@H](CC(C)C)C(=O)N[C@H]1C(=O)N[C@@H](CC(N)=O)C(=O)N[C@H]2C(=O)N[C@H]3C(=O)N[C@H](C(=O)N[C@H](C(=O)O)c4cc(O)cc(O)c4-c4cc3ccc4O)[C@H](O)c3ccc(c(Cl)c3)Oc3cc2cc(c3O[C@@H]2O[C@H](CO)[C@@H](O)[C@H](O)[C@H]2O[C@H]2C[C@](C)(N)[C@H](O)[C@H](C)O2)Oc2ccc(cc2Cl)[C@H]1O [VANCOMYCIN] |  |  |  | 0.2 (≈ 0.138 µM) |  |  | 
12 | C[C@H](CO)[C@@H]1OC(CC2CC(=O)NC(=O)C2)=CC(=O)[C@H]1C | 18 (≈ 60.9 µM) | Not Active | 12 (≈ 40.6 µM) | 10 (≈ 33.9 µM) | Not Active |  | 
13 | GENTAMICIN |  |  | 1.25 |  |  |  | 
14 | COc1cccc2c1C(=O)c1c(O)c3c(c(O)c1C2=O)C[C@@](O)(C(=O)CO)C[C@@H]3O[C@H]1C[C@H](N)[C@H](O)[C@H](C)O1 [DOXORUBICIN] |  |  |  |  |  | 6800 | 1600
15 | C[C@@H]1C[C@@](C)(CO)O/C1=C\C(=O)CC1CC(=O)NC(=O)C1 | 20 (≈ 67.7 µM) | Not Active | 9 (≈ 30.5 µM) | 11 (≈ 37.2 µM) | Not Active |  | 
